According to patent US20140255471A1, “METHOD OF TREATING BRAIN TUMORS” (Wake Forest University Health Sciences, priority 2013, published 2014):
pIC50: −log10 of the molar value. Like-named read-outs stand apart in the source and are kept apart here.

How the values were obtained:
[1] = tested on: primary astrocyte cultures; test: Viability of primary astrocyte cultures; conditions: same doses as for neurons (up to 1 μM)
primary cortical neurons = test: Viability of primary cortical neuronal cultures; conditions: 1 μM, 72 hours in culture
Protocol: Cortical neuronal cultures were prepared using previously described protocols. […] The tissue was further dissected into smaller pieces. After washes in cold PBS without Ca^+2/Mg^+2, tissue was incubated in 0.05% trypsin in PBS without Ca^+2/Mg^+2. Tissue was then dissociated in NB media using a blue-tip pipette. Dissociated cells were layered onto a 4% BSA cushion to remove debris. Cells were plated in NB media at a density 4×10^4 cells/well in a 24 well dish. After 24 hours, media was removed and replaced with fresh media with or without 5FU or F10. After 72 hours in culture, surviving neurons were counted. To be counted a cell had to have a phase-bright cell body and at least one neurite that was at least two times the diameter of the soma. Results are expressed as percent control (Mean±SD) where control represents cultures without the addition of 5FU or F10 (n=4 individual experiments with at least two wells per condition). Statistical significance was determined with a one-way ANOVA followed by the Bonferroni post-hoc test.

U138 cells [2] = test: Radiosensitization of U138 cells (clonogenic, 6 Gy); assay type: cell-based, human; conditions: FdUMP[10] and AZD7762 given before irradiation
Protocol: FIG. 9. Treating human glioma U138 cells with FdUMP[10] and AZD7726 enhanced their radiosensitivity. 500-2000 U138 cells were seeded into 60 mm dishes and treated with 1 nM FdUMP[10] (F1) for 9 h and 10 nM AZD7726 (A2) for 1 h prior to irradiation with a single dose of 6 Gy. Cells were fixed and stained with violet blue and colonies were counted using a colony counter at 10 days post-treatment. The study indicates combined treatment U138 with FdUMP[10] and AZD7762 sensitize cells to radiation.
Radiation is cytotoxic as a consequence of unrepaired DNA damage. […] In these studies, FdUMP[10] was administered […] prior to irradiation and AZD7762 1 h prior to radiation. Though not wishing to be bound by theory, it is thought that radiosensitization results from induction of a thymineless state following FdUMP[10] treatment and disabling of HRR and abrogation of the G2 checkpoint following AZD7762 treatment. Under these conditions, DNA repair of radiation-induced DNA damage is inhibited due to lack of thymidine while inhibiting Rad51 activation prevents HRR which is important for repair of radiation-induced DNA DSBs (Helleday 2010). Abrogating the G2-checkpoint causes cells to enter mitosis with lethally-damaged DNA enhancing the cytotoxic effects of radiation.

U138 cells [3] = test: Flow cytometry of DNA content and cleaved caspase 3 in U138 cells; assay type: cell-based, human
Protocol: U138 cells were treated with 1 nM FdUMP[10] and/or 10 nM of AZD7762 for 9 or 1 h, respectively, prior to irradiation with a single dose of 6 Gy. Cells were harvested 24 h post-irradiation and analyzed for DNA content (A) and cleaved caspase 3 (B) by flow cytometry.

U138 cells [4] = test: Clonogenic survival of U138 cells; assay type: cell-based, human; conditions: 1 nM FdUMP[10] and/or 10 nM AZD7762, drugs removed after 72 h, colonies counted 10 days post-treatment
Protocol: 500-2000 U138 cells were seeded into 60 mm dishes and treated with 1 nM FdUMP[10] (F1) and/or 10 nM AZD7726 (A2) and the drugs were removed after 72 h. Cells were fixed and stained with violet blue and colonies were counted using a colony counter 10 days post-treatment. […] The results are consistent with FdUMP[10]AZD7762 being synergistic at decreasing the clonogenicity of U138 cells.

[5] = target: T1, thymidylate synthase (TS) (Homo sapiens, UniProt P04818); test: TS catalytic activity assay in lysates of treated GBM cells; assay type: cell-based; conditions: G48a, U-251 MG and SNB-19 GBM cells; F10 10^−6 and 10^−5 M, raltitrexed 10^−6 M
T1 construct: harvested, and lysed by freeze-fracturing; Following centrifugation of cell lysates, supernatants were assayed for protein content and TS catalytic activity; endogenous in cells; host or cells: G48a, U-251 MG and SNB-19 GBM cells
Protocol: TS assays were conducted using procedures similar to those previously described. (Gmeiner et al., Enhanced DNA-directed effects of FdUMP[10] compared to 5FU. Nucleosides Nucleotides Nucleic Acids. 2004; 23(1-2):401-410.) GBM cells were plated at a density of 1.5×10^6 cells in 100 mm^2 plates. Cells were grown overnight in RPMI 1640 medium with 10% FBS. Either 5FU (Sigma), F10, or raltitrexed were then added at the indicated concentrations and the cells were incubated for 8, 16, 24, or 48 hrs, harvested, and lysed by freeze-fracturing. Following centrifugation of cell lysates, supernatants were assayed for protein content and TS catalytic activity as previously described. (Gmeiner et al., Enhanced DNA-directed effects of FdUMP[10] compared to 5FU. Nucleosides Nucleotides Nucleic Acids. 2004; 23(1-2):401-410.)

SF-268 = conditions: at or below lowest concentration evaluated; cited from earlier work
SF-539 = conditions: at or below lowest concentration evaluated; cited from earlier work
[6] = target: T2, DNA Topoisomerase 1 (Top1) cleavage complex (Homo sapiens, UniProt P11387); test: In vivo complex of enzyme (ICE) bioassay; assay type: cell-based; conditions: SNB-19 and U-251 MG cells
T2 construct: endogenous in cells; host or cells: SNB-19 and U-251 MG GBM cells
T2 sequence (P11387 2-765 limits assumed): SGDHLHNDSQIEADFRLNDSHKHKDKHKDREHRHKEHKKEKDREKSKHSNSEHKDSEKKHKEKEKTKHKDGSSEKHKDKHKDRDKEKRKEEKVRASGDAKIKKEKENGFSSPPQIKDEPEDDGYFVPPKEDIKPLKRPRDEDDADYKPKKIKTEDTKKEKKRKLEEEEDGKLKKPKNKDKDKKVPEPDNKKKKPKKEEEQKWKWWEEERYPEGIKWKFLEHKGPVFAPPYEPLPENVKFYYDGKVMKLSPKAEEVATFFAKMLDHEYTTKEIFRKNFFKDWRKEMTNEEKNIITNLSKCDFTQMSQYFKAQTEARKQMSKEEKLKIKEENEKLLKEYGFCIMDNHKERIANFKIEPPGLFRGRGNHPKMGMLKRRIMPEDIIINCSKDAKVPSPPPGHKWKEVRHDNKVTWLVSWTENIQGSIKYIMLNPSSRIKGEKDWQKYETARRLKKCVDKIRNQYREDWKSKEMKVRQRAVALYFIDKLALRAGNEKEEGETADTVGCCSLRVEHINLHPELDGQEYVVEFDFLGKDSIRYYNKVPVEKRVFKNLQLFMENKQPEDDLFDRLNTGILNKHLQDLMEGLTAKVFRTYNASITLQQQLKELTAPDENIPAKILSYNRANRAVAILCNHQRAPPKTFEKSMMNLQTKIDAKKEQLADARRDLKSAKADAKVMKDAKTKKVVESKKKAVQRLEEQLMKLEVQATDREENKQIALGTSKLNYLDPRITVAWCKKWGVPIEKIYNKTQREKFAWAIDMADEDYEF
Protocol: G48a and primary explant cells derived from patient GBM tumors were grown in RPMI 1640 (Lonza, Rockland, Me.) supplemented with 10% FBS and glucose (2 g/L). G48a-luciferase cells were produced by lentiviral infection using a GFP-tagged vector. Cells were selected using blastocydin (10 μg/mL). U-251 MG and SNB-19 cells were obtained from ATCC and grown in RPMI 1640 (Lonza, Rockland, Me.) supplemented with 10% FBS and glucose (2 g/L). U-251 MG cells were grown in DMEM supplemented with 10% FBS and non-essential amino acids. In vivo complex of enzyme (ICE) bioassays were completed using methods similar to those previously described. (Liao et al., A novel polypyrimidine antitumor agent FdUMP[10] induces thymineless death with topoisomerase I-DNA complexes. Cancer Res. 2005; 65(10:4844-4851) GBM cells were incubated with F10 at the indicated concentrations for 0-48 hrs. Thymidine (Thy) rescue was accomplished by adding Thy at 80 μM, as the 20 μM dose previously described (Wang et al., Mechanisms of acquired chemoresistance to 5-fluorouracil and tomudex: thymidylate synthase dependent and independent networks. Cancer Chemother Pharmacol. 2007; 59(6):839-845) was not effective for rescue. Cell samples were counted and equalized for cell number. Primary antibody (mouse anti-human DNA Top I, BD Pharmingen) was added at 1:500 dilution. Secondary antibody (Cell Signaling) was used at 1:1000. […]

[7] = Dose-finding / tolerability upon i.c. administration; assay type: in vivo, nude mice
Text: The nanoscale size of F10 (length ˜3 nm), as well as its multiple negative charges, make penetration of the BBB following systemic delivery an inefficient process. Conversely, intra-cranial (i.c.) administration of F10 is expected to result in high local concentrations that may be therapeutically beneficial, particularly in light of the relatively strong cytotoxicity towards GBM cells and the minimal toxicity of F10 towards primary cortical neurons (FIG. 3A). Dose-finding studies in nude mice were performed to identify doses that were sufficiently well-tolerated to be evaluated in efficacy studies. F10 was dissolved in PBS and administered i.e. using an Alzet osmotic mini-pump over a 7 day period. Vehicle-only served as a control. […] These dose levels are considerably lower than those used in recent leukemia studies in which F10 was administered systemically (200 mg/kg qodx4) (Pardee et al., Unique dual targeting of thymidylate synthase and topoisomerase 1 by FdUMP[10] results in high efficacy against AML and low toxicity. Blood. 2012; 119(15):3561-3570), consistent with F10 being retained within the BBB upon i.c. administration.

[8] = tested on: CNS malignancies included in the NCI 60 cell line panel; conditions: all CNS malignancies included in the NCI 60 cell line panel; cited from earlier work
U-251 MG = conditions: cited from earlier work
[9] = tested on: CNS malignancies included in the NCI 60 cell line panel; test: NCI 60 cell line screen, CNS malignancies of the panel; assay type: cell-based, human; conditions: several GBM cell lines
SF-295 = conditions: at or below lowest concentration evaluated; cited from earlier work
[10] = tested on: G48a orthotopic xenografts
Protocol: G48a-luc were suspended into Hanks Balanced Salt Solution to a density of 10^5 cells/μL. Nude (nu/nu) 7-week old mice were obtained from NCI. Mice were anesthetized using a ketamine/xylazine mixture and placed on a small-animal, head-holding frame. A scalp incision was made to determine the drill-hole location, 1 mm right and 1 mm anterior to lambda. A 27-gauge needle attached to a 10 mL sterile Hamilton syringe (Hamilton, Reno, Nev.) was stereotactically inserted 3 mm below the dural surface and cells were injected into the deep white matter of the posterior thalamus. Cells were injected in a total of 5 μL over a five minute period. The syringe was removed two minutes after the injection was completed, retracting it at a rate of 0.5 mm per minute. After removal of the syringe, the hole was covered with cranio-plastic liquid. Animals were sutured, allowed to recover on a heating pad, and returned to their cages. Animal weight and behavior was monitored every three days.
Starting on day 21 after tumor cell implantation, mice were treated by intra-cerebral (i.c.) infusion (0.5 μL/h) of F10 at 3 concentrations (80, 120 and 160 mg/kg) for a duration of 7 days. Drug was prepared in phosphate buffered saline. Osmotic pumps (ALZET® model 1007D, Alzet, Cupertino, Calif.) were primed in sterile saline overnight at 37° C. according to manufacturer's specification. The pumps were then coupled to brain infusion kits (ALZET® model 3). Animals were anesthetized using a ketamine/xylazine mixture and placed on a small-animal head holding frame, and the location of initial injection (1 mm right and 1 mm anterior to lambda) was retraced. The cannula was then inserted to a depth of 3 mm and secured with cranio-plastic adhesive and the pump was placed subcutaneously between the shoulder blades. Animals were sutured, allowed to recover and evaluated for any motor deficits resulting from the surgical procedure. […] Animals were euthanized 24 hours post-treatment when body weight loss was above 12% or when behavior prevented normal activity.
Animals received an intraperitoneal (i.p.) injection of D-luciferin (150 mg/kg, stock solution 15 mg/mL in sterile PBS, Goldbio, St. Louis, Mo.), After 10 min, animals were anesthetized with isofluorane until non-responsive, and then placed in the imaging chamber. Three bioluminescent imaging acquisitions were collected at different exposure times (10, 60, 300 sec). Mice were allowed to recover and returned to their cages. Data were analyzed based on total photon flux emission (photons) in the region of interest over the intracranial space using Living Image software (Xenogen Corp.).
Animals were deeply anesthetized with an i.p injection of ketamine/xylazine and fixed by transcardial perfusion through the heart with PBS (pH=7.4) followed by 4% paraformaldehyde in PBS (PFA). Brains were removed and fixed overnight in 4% PFA. Brains were then cryoprotected in 30% sucrose-PBS at 4° C. for 2-3 days, Brains were embedded in tissue-freezing medium (Triangle Biomedical Sciences, Durham, N.C.) and sections were cut to a thickness of 10 μm, thawed onto SuperFrost Plus slides (Fisher, Pittsburgh, Pa.) and kept at −20° C. until further processing. Sections from vehicle- and F10-treated animals were thawed prior to exposure with primary antibodies. Endogenous peroxidase activity and non-specific biotin was quenched with Peroxide Blocking Kit and Biotin Blocking Kit, respectively (ScyTek Laboratories, Logan, Utah). Antigen retrieval was performed with 10 mM sodium citrate buffer, pH 6.0, by microwaving for 5 min. Slides were blocked with SuperBlock (ScyTek) and incubated with polyclonal EphA2 antibody (R&D Systems, Minneapolis, Minn.) overnight at 4° C.

SNB-19 = conditions: cited from earlier work
G48a cells = test: Cytotoxicity (cell viability) towards G48a GBM cells; assay type: cell-based, human; conditions: G48a cell line; FIG. 1C
[11] = with irradiation 6 Gy, 1 nM FdUMP[10] 9 h and/or 10 nM AZD7762 1 h before, 24 h post-irradiation

T1 sequence (P04818 2-313 limits assumed): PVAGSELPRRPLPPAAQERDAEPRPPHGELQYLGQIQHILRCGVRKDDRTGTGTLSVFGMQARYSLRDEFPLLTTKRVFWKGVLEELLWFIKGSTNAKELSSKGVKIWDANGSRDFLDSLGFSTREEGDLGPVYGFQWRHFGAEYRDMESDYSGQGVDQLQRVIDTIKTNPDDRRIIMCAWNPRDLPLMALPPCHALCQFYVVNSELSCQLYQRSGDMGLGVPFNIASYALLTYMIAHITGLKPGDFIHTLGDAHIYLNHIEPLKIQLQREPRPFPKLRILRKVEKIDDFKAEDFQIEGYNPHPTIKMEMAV

With `O=c1[nH]cc(F)c(=O)[nH]1` [5FU, 5-fluorouracil] the “viability of primary astrocyte cultures, treated vs control” value [1] was “no apparent differences in viability” and the “decreased viability for cortical neurons relative to control” value (primary cortical neurons) was “approximately 50%”.

In the case of `NC(=O)Nc1cc(-c2cccc(F)c2)sc1C(=O)N[C@H]1CCCNC1` [AZD7762, reference compound], the radiosensitization (U138 cells [2]) was “neither FdUMP[10] nor AZD7762 are appreciably radiosensitizing”, the “cleaved caspase 3 (apoptosis)” value (U138 cells [3]; [11]) was “do not result in significant percent of cleaved caspase 3” and the “cleaved caspase 3 (apoptosis)” value (U138 cells [3]; without irradiation, 10 nM AZD7762) was “do not result in significant percent of cleaved caspase 3”. The survival fraction (U138 cells [4]) was 0.80.

In the case of `Cc1nc2ccc(CN(C)c3ccc(C(=O)N[C@@H](CCC(=O)O)C(=O)O)s3)cc2c(=O)[nH]1` [Raltitrexed, reference compound], the TS inhibition [5] was “effectively inhibited TS”.

In the case of FdUMP[10] [F10], the TS inhibition [5] is listed as “inhibited TS completely”, the GI50 (SF-268) is listed as no more than 5 nM and the radiosensitization (U138 cells [2]) is listed as “neither FdUMP[10] nor AZD7762 are appreciably radiosensitizing”. The GI50 (SF-539) was no more than 5 nM, the Top1CC formation [6] was “induces Top1CC formation” and the well-tolerated dose ([7]; i.c., osmotic mini-pump over 7 days) was “up to 200 mg/kg”. For the same molecule, the “appearance and behaviour of mice” value ([7]; mouse, in vivo) was “light-sensitive, with eyes partially closed, and were more lethargic than mice treated with vehicle-only”, the “DNA content / cell cycle” value (U138 cells [3]; 1 nM FdUMP[10] and/or 10 nM AZD7762) was “causes G2-arrest” and the “cleaved caspase 3 (apoptosis)” value (U138 cells [3]; [11]) was “result predominantly in apoptotic cells”. The GI50 [8] was less than 1000 nM, the GI50 (U-251 MG) was 115 nM and the “differential sensitivity for F10 relative to 5FU” value [9] was ~10,000 fold. The GI50 (SF-295) was no more than 5 nM, the survival fraction (U138 cells [4]) was 0.84 and the “EphA2 staining, tumor-bearing side” value ([10]; 80 mg/kg) was “only trace levels of EphA2 positive staining”. For the same molecule, the “EphA2 staining, tumor-bearing side” value ([10]; 120 mg/kg) was “no EphA2 staining”, the “mean tumor volumes (%-change in photon emission)” value ([10]; 120 mg/kg i.c. over 7 days, p<0.01) was “significantly decreased relative to control” and the “extent of tumor cell necrosis (H&E)” value ([10]; 120 mg/kg vs 80 mg/kg) was “greater tumor cell necrosis than the 80 mg/kg dose”. The “luminescent signal (IVIS imaging)” value ([10]; 160 mg/kg i.c. over 7 days) was “did not display decreased lumincescent signal”, the “treatment effect by histology” value ([10]; 160 mg/kg i.c. over 7 days) was “significant treatment effect” and the “tumor regression (IVIS imaging)” value ([10]; 80 and 120 mg/kg i.c. over 7 days) was “significant tumor regression”. For the same molecule, the “necrosis in tumor tissue (H&E)” value ([10]; 80 or 120 mg/kg i.c. over 7 days) was “extensive areas of necrosis selectively within tumor tissue”, the “necrosis in contralateral side of brain (H&E)” value ([10]; mouse, in vivo) was “no observable necrosis” and the GI50 (SNB-19) was 170 nM. The pIC50 (G48a cells) was roughly 6.00.
